Assay results from PMC8620685, “Effect of Selected Silyl Groups on the Anticancer Activity of 3,4-Dibromo-5-Hydroxy-Furan-2(5H)-One Derivatives” (Pharmaceuticals, 2021).
Entries after “also recorded” stand apart in the source; their conditions may differ. Where two headings read alike, the source gives them in different places.

How the values were obtained:
HCT-116 cells [1] = experiment: Cell cycle analysis (PI staining, flow cytometry); type: cell-based, human; conditions: 24 h; for effect on progression of the cell cycle / increase of the sub-G1 population / sub-G1 cells: HCT-116; for sub-G1 cells: untreated cells 0.3%
Method: To better understand the origin of the higher susceptibility of colon cancer cells to MBA and its novel derivatives, compounds 3b and 3c were selected to test their ability to perturb the cell cycle in the HCT-116 cell line. […] However, a significant increase in the percentage of sub-G1 cells after treatment with compounds 3b and 3c was observed. Compound 3b increased the sub-G1 population by 10% and 31%, at a concentration of 10 μM and 20 μM, respectively, while compound 3c exerts such effect only by 10% at the highest tested concentration (Figure 2).
The HCT 116 cells were seeded in 6-well plates (Nunc, ThermoFisher, Waltham, MA, USA) at a density of 5 × 10^4 cells/well. After 24 h the medium was replaced with tested compounds. The cells were incubated for 24 h at 37 °C. Afterward, floating cells were collected and adherent cells were harvested by trypsinization and centrifuged at 600× g. The cells were washed with PBS (phosphate buffered saline) (Sigma-Aldrich, Taufkirchen, Germany) and then fixed in 70% ice-cold ethanol and stored at −20 °C overnight. The next day the cells were centrifuged at 600× g, washed with PBS, treated with 100 μg/mL RNase A solution (EURx, Gdańsk, Poland), 100 μg/ml solution of propidium iodide (PI) (Acros Organics, Geel, Belgium) and incubated for 30 min at room temperature in the dark. After staining, the cells were analyzed using a Becton Dickinson FACS Aria III sorter (BD Company, San Diego, CA, USA). Experiments were repeated at least twice. Data were analyzed using ModFit LTTM Software (Verity Software House, Topsham, ME, USA).

U2OS = experiment: MTT assay, U2OS; type: cell-based; conditions: Homo sapiens, 72 h, read-out: IC50 (cytotoxicity), U2OS
Method: (§1) The in vitro antitumor activities of the MBA and its derivatives (Table 2) were assayed against a panel of human cancer cell lines (HCT116, HCT-116 ^−/−p53, HT-29, MCF-7, SJSA-1, U2OS, HepG2 and Hep3B) using the MTT assay. As a reference drug we used 5-fluorouracil (5-FU). […] On the basis of in vitro antiproliferative activities, compounds 3b and 3c were selected for further mechanistic studies in the HCT-116 cell line.
(§2) Human cells lines: colon cancer (HCT-116 wt, HT-29), non-small lung carcinoma (A549), and bronchial epithelial cells (BEAS-2B) were obtained from American Type Culture Collection (ATCC, Manassas, VA, USA). Isogenic cell line HCT 116 p53^−/− (deleted both p53 alleles) were a gift from Dr. Bert Vogelstein. Other cell lines, namely MCF-7, SJSA-1, U2OS, HepG2, and Hep3B were received from the collection stored at Centre of Biotechnology of Silesian University of Technology. All cells were grown in DMEM with a high glucose medium (Sigma-Aldrich, Taufkirchen, Germany) supplemented with 10% (v/v) inactivated fetal bovine serum (FBS) (EURx, Gdańsk, Poland) and 1% antibiotics (10,000 μg/mL of streptomycin and 10,000 units/ml of penicillin) (Sigma-Aldrich, Taufkirchen, Germany) at 37 °C in humidified 5% CO2. The maximum concentration of DMSO in the culture media was 0.4%.
(§3) 5 × 10^3 cells per well for the MCF-7 cell line and 2.5 × 10^3 cells per well for the other cell lines were seeded in 96-well plates to adhere for 24 h. Afterward, the cells were treated with tested compounds. After 72 hours of incubation, 50 μL 0.5 mg/ml solution of MTT (3-(4,5-dimethylthiazol-2-yl)-2,5-diphenyl-2H-tetrazolium bromide) were added to each well and the plates were incubated for 3 h at 37 °C. Next, the MTT solution was removed from the plates and formed formazan crystals were dissolved in 2-propanol (Avantor Performance Materials, Gliwice, Poland) containing 0.04 M hydrochloric acid (Avantor Performance Materials, Gliwice, Poland). The absorbance was measured at 570 nm wavelength using a multiwall plate reader (BioTek, Winooski, VT, USA). The experiment was performed at a minimum of 3 independent replicates. Cell viability was set as a percentage versus vehicle control. IC50 was defined as a concentration of a drug that decreased cell viability by 50% relative to the untreated control.

HepG2 = experiment: MTT assay, HepG2; type: cell-based; conditions: Homo sapiens, read-out: IC50 (cytotoxicity), HepG2
Method: as §1, §2
as §3, with “The experiment was performed at a minimum of 3 independent replicates. Cell viability was set as a percentage versus vehicle control. IC50 was defined as a concentration of a drug that decreased cell viability by 50% relative to the untreated control.” left out

HCT-116 cells [2] = experiment: Clonogenic (colony-formation) assay; type: cell-based, human; conditions: HCT-116, 10 μM for 24 h, then 10 days in drug-free medium
Method: We next sought to investigate the effects of the MBA and compound 3b clonogenic potential of the HCT-116 cell line. The cells were treated with compounds 1 and 3b at 10 μM for 24 h. After harvesting, the cells were re-seeded and cultivated for another 10 days in a drug-free medium.
The HCT116 wt cells (5 × 10^4 cells/well) were plated in 6-well plates (Nunc, ThermoFisher, Waltham, USA) and treated with the tested compounds for 24 and 72 h. Cells were harvested by trypsinization and then re-seeded on the new 6-well plate (Nunc, ThermoFisher, Waltham, MA, USA) with a density of 2 × 10^3 cells/well. After 10 days the cells were washed with cold PBS (Sigma-Aldrich, Taufkirchen, Germany), fixed in ice-cold ethanol (−20 °C) for 3 minutes, air-dried, washed again with cold PBS and stained with 0.01% crystal violet (Sigma-Aldrich, Taufkirchen, Germany) in dH2O (deionized water) for 15 min. Next the plates were washed in dH2O and allowed to dry. Colonies were counted with a microscope (Zeiss, Oberkochen, Germany). Aggregates of 30 cells or more were considered as colonies. Photos were made using the G:Box transilluminator (Syngene, Cambridge, UK).

HCT 116 wt = experiment: MTT assay, HCT 116 wt; type: cell-based, human; conditions: Homo sapiens, HCT-116, 72 h, read-out: IC50 (cytotoxicity), HCT 116 wt, MTT, 72 h incubation
Method: as §1, §2, §3

Hep3B = experiment: MTT assay, Hep3B; type: cell-based; conditions: Homo sapiens, read-out: IC50 (cytotoxicity), Hep3B
Method: as §1, §2, §3

[3] = test system: panel of human cancer cell lines (HCT116, HCT-116 −/−p53, HT-29, MCF-7, SJSA-1, U2OS, HepG2 and Hep3B); experiment: MTT assay, panel of human cancer cell lines; type: cell-based; conditions: 72 h incubation, read-out: IC50 range across all tested cancer cells
Method: as §1
Human cells lines: colon cancer (HCT-116 wt, HT-29), non-small lung carcinoma (A549), and bronchial epithelial cells (BEAS-2B) were obtained from American Type Culture Collection (ATCC, Manassas, VA, USA). Isogenic cell line HCT 116 p53^−/− (deleted both p53 alleles) were a gift from Dr. Bert Vogelstein. Other cell lines, namely MCF-7, SJSA-1, U2OS, HepG2, and Hep3B were received from the collection stored at Centre of Biotechnology of Silesian University of Technology. […]
5 × 10^3 cells per well for the MCF-7 cell line and 2.5 × 10^3 cells per well for the other cell lines were seeded in 96-well plates to adhere for 24 h. […] The absorbance was measured at 570 nm wavelength using a multiwall plate reader (BioTek, Winooski, VT, USA). […]

Row | Structure (SMILES) | effect on progression of the cell cycle (HCT-116 cells [1]; 10 μM) | increase of the sub-G1 population (HCT-116 cells [1]; 10 μM) [%] | effect on progression of the cell cycle (HCT-116 cells [1]; 20 μM) | increase of the sub-G1 population (HCT-116 cells [1]; 20 μM) [%] | IC50 (U2OS) [µM] | IC50 (HepG2; HepG2, MTT, 72 h incubation) [µM] | clonogenic potential (re-growth of colonies) (HCT-116 cells [2]) | IC50 (HCT 116 wt) [µM] | IC50 (Hep3B; MTT, 72 h incubation) [µM] | IC50 [3] [µM] | sub-G1 cells (HCT-116 cells [1]; 10 μM) [%] | percentage of cells in G1 phase (HCT-116 cells [1]; 20 μM, HCT 116, representative cytogram) [%] | sub-G1 cells (HCT-116 cells [1]; 20 μM) [%] | IC50 (HepG2; HepG2, 72 h) [µM] | IC50 (Hep3B; 72 h) [µM]
1 | CC(C)[Si](OC1OC(=O)C(Br)=C1Br)(C(C)C)C(C)C (centres unmarked) [Compound 3b, 3,4-Dibromo-5-(triisopropylsilyloxy)-furan-2(5H)-one] | neither the MBA nor its silyl derivatives 3b and 3c tested at 10 μM, influenced the progression of the cell cycle | 10 | did not alter the progression of the cell cycle | 31 | 9.3 ± 0.2 | 15.6 ± 1.2 | completely abolished the re-growth of HCT-116 colonies; also recorded: abolishes the clonogenic potential | 15.1 ± 1.2 | 21.3 ± 3.5 | 7.3 to 21.3 |  |  |  |  | 
2 | CC(C)(C)[Si](OC1OC(=O)C(Br)=C1Br)(c1ccccc1)c1ccccc1 (centres unmarked) [Compound 3c, 3,4-Dibromo-5-(tert-butyldiphenylsilyloxy)-furan-2(5H)-one] | neither the MBA nor its silyl derivatives 3b and 3c tested at 10 μM, influenced the progression of the cell cycle |  | did not alter the progression of the cell cycle | 10 | 10.2 ± 0.8 |  |  | 6.3 ± 0.3 | 65.6 ± 2.2 | 3.9 to 65.6 |  |  |  |  | 
3 | O=C1OC(O)C(Br)=C1Br (centres unmarked) [MBA, 3,4-dibromo-5-hydroxyfuran-2(5H)-one, reference compound] | neither the MBA nor its silyl derivatives 3b and 3c tested at 10 μM, influenced the progression of the cell cycle |  |  |  | 97.6 ± 1.1 |  | attenuated the clonogenic potential of HCT-116 to a much less extent | 20.5 ± 5.2 |  |  | 0.7 | 38.9 | 1.6 | 91.7 ± 2.2 | 125 ± 10.5
